Experimental data: patent US20250255874A1, “Methods for Treating Immune Thrombocytopenia By Administering (R)-2-[3-[4-Amino-3-(2-Fluoro-4-Phenoxy-Phenyl)Pyrazolo[3,4-D]Pyrimidin-1-YL]Piperidine-1-Carbonyl]-4-Methyl-4-[4-(Oxetan-3-YL)Piperazin-1-YL]Pent-2-Enentrile” (Principia Biopharma Inc., priority 2022, published 2025)
Marks after values point to notes of the source that are not given here.

Test system: patients with relapsed/refractory immune thrombocytopenia
Experiment: Phase 1/2 study (NCT03395210) Part A, safety;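 also: adverse events graded by NCI CTCAE version 4.0, with worsening of pre-existing conditions counted as adverse events, analysed in the Safety Population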
[1] = 45 patients who initiated 400 bid

CC(C)(C=C(C#N)C(=O)N1CCC[C@@H](n2nc(-c3ccc(Oc4ccccc4)cc3F)c3c(N)ncnc32)C1)N1CCN(C2COC2)CC1 [rilzabrutinib, (R)-2-[3-[4-amino-3-(2-fluoro-4-phenoxy-phenyl)pyrazolo[3,4-d]pyrimidin-1-yl]piperidine-1-carbonyl]-4-methyl-4-[4-(oxetan-3-yl)piperazin-1-yl]pent-2-enenitrile]
11 (18) number of patients (percent): Contusion, TEAEs Due to Any Cause, Any grade (Safety Population, N = 60)
8 (13)^† number of patients (percent): Any TEAE, TEAEs Due to Any Cause, Grade 3/4 (Safety Population, N = 60)
2 (3) number of patients (percent): Abdominal pain, TEAEs Due to Any Cause, Grade 2 (Safety Population, N = 60) | Abdominal pain, Treatment-Related TEAEs, Any grade (Safety Population, N = 60) | Abdominal pain, Treatment-Related TEAEs, Grade 2 (Safety Population, N = 60) | Alopecia, TEAEs Due to Any Cause, Any grade (Safety Population, N = 60) | Alopecia, TEAEs Due to Any Cause, Grade 1 (Safety Population, N = 60) | Anemia, TEAEs Due to Any Cause, Grade 2 (Safety Population, N = 60) | Anemia, TEAEs Due to Any Cause, Grade 3/4 (Safety Population, N = 60) | Arthralgia, TEAEs Due to Any Cause, Grade 2 (Safety Population, N = 60) | Costochondritis, TEAEs Due to Any Cause, Any grade (Safety Population, N = 60) | Costochondritis, TEAEs Due to Any Cause, Grade 1 (Safety Population, N = 60) | Cough, TEAEs Due to Any Cause, Any grade (Safety Population, N = 60) | Cough, TEAEs Due to Any Cause, Grade 1 (Safety Population, N = 60) | Dizziness, TEAEs Due to Any Cause, Any grade (Safety Population, N = 60) | Dizziness, TEAEs Due to Any Cause, Grade 1 (Safety Population, N = 60) | Dyspnea exertional, TEAEs Due to Any Cause, Any grade (Safety Population, N = 60) | Dyspnea exertional, TEAEs Due to Any Cause, Grade 1 (Safety Population, N = 60) | Dyspnea, TEAEs Due to Any Cause, Any grade (Safety Population, N = 60) | Dyspnea, TEAEs Due to Any Cause, Grade 1 (Safety Population, N = 60) | Edema, TEAEs Due to Any Cause, Any grade (Safety Population, N = 60) | Edema, TEAEs Due to Any Cause, Grade 1 (Safety Population, N = 60) | Epistaxis, TEAEs Due to Any Cause, Any grade (Safety Population, N = 60) | Epistaxis, TEAEs Due to Any Cause, Grade 1 (Safety Population, N = 60)
13 (29) number of patients (percent): Diarrhea, Treatment-Related TEAEs, Grade 1 (N = 45 initiated 400 mg bid)
1 (2) number of patients (percent): Fatigue, Treatment-Related TEAEs, Grade 2 (N = 45 initiated 400 mg bid) | Vomiting, Treatment-Related TEAEs, Grade 2 (N = 45 initiated 400 mg bid) | Abdominal discomfort, TEAEs Due to Any Cause, Any grade (Safety Population, N = 60) | Abdominal discomfort, TEAEs Due to Any Cause, Grade 1 (Safety Population, N = 60) | Abdominal discomfort, Treatment-Related TEAEs, Any grade (Safety Population, N = 60) | Abdominal discomfort, Treatment-Related TEAEs, Grade 1 (Safety Population, N = 60) | Abdominal pain, TEAEs Due to Any Cause, Grade 1 (Safety Population, N = 60) | Abnormal dreams, TEAEs Due to Any Cause, Any grade (Safety Population, N = 60) | Abnormal dreams, TEAEs Due to Any Cause, Grade 1 (Safety Population, N = 60) | Abnormal dreams, Treatment-Related TEAEs, Any grade (Safety Population, N = 60) | Abnormal dreams, Treatment-Related TEAEs, Grade 1 (Safety Population, N = 60) | Akathisia, TEAEs Due to Any Cause, Any grade (Safety Population, N = 60) | Akathisia, TEAEs Due to Any Cause, Grade 1 (Safety Population, N = 60) | Akathisia, Treatment-Related TEAEs, Any grade (Safety Population, N = 60) | Akathisia, Treatment-Related TEAEs, Grade 1 (Safety Population, N = 60) | Back pain, TEAEs Due to Any Cause, Grade 2 (Safety Population, N = 60) | Back pain, Treatment-Related TEAEs, Any grade (Safety Population, N = 60) | Back pain, Treatment-Related TEAEs, Grade 2 (Safety Population, N = 60) | Contusion, TEAEs Due to Any Cause, Grade 3/4 (Safety Population, N = 60) | Contusion, Treatment-Related TEAEs, Any grade (Safety Population, N = 60) | Contusion, Treatment-Related TEAEs, Grade 1 (Safety Population, N = 60) | Decreased appetite, TEAEs Due to Any Cause, Any grade (Safety Population, N = 60) | Decreased appetite, TEAEs Due to Any Cause, Grade 1 (Safety Population, N = 60) | Decreased appetite, Treatment-Related TEAEs, Any grade (Safety Population, N = 60) | Decreased appetite, Treatment-Related TEAEs, Grade 1 (Safety Population, N = 60) | Defecation urgency, TEAEs Due to Any Cause, Any grade (Safety Population, N = 60) | Defecation urgency, TEAEs Due to Any Cause, Grade 2 (Safety Population, N = 60) | Defecation urgency, Treatment-Related TEAEs, Any grade (Safety Population, N = 60) | Defecation urgency, Treatment-Related TEAEs, Grade 2 (Safety Population, N = 60) | Dyspepsia, TEAEs Due to Any Cause, Grade 2 (Safety Population, N = 60) | Dyspepsia, Treatment-Related TEAEs, Any grade (Safety Population, N = 60) | Dyspepsia, Treatment-Related TEAEs, Grade 1 (Safety Population, N = 60) | Edema, Treatment-Related TEAEs, Any grade (Safety Population, N = 60) | Edema, Treatment-Related TEAEs, Grade 1 (Safety Population, N = 60) | Epigastric discomfort, TEAEs Due to Any Cause, Any grade (Safety Population, N = 60) | Epigastric discomfort, TEAEs Due to Any Cause, Grade 2 (Safety Population, N = 60) | Epigastric discomfort, Treatment-Related TEAEs, Any grade (Safety Population, N = 60) | Epigastric discomfort, Treatment-Related TEAEs, Grade 2 (Safety Population, N = 60) | Erysipelas, TEAEs Due to Any Cause, Any grade (Safety Population, N = 60) | Erysipelas, TEAEs Due to Any Cause, Grade 2 (Safety Population, N = 60) | Erysipelas, Treatment-Related TEAEs, Any grade (Safety Population, N = 60) | Erysipelas, Treatment-Related TEAEs, Grade 2 (Safety Population, N = 60)
23 (51) number of patients (percent): All related TEAEs, Treatment-Related TEAEs, Grade 1 (N = 45 initiated 400 mg bid)
84%: patients with ≥1 treatment-related, treatment-emergent adverse event (45 patients who initiated 400 mg bid)
10 (17) number of patients (percent): Fatigue, TEAEs Due to Any Cause, Grade 1 (Safety Population, N = 60)
2 (4) number of patients (percent): Nausea, Treatment-Related TEAEs, Grade 2 (N = 45 initiated 400 mg bid) | Vomiting, Treatment-Related TEAEs, Grade 1 (N = 45 initiated 400 mg bid)
8 (13) number of patients (percent): Back pain, TEAEs Due to Any Cause, Any grade (Safety Population, N = 60)
6 (10) number of patients (percent): Abdominal distension, TEAEs Due to Any Cause, Any grade (Safety Population, N = 60) | Abdominal distension, TEAEs Due to Any Cause, Grade 1 (Safety Population, N = 60)
36%: treatment-related any-grade TEAE: diarrhea [1]
7 (12) number of patients (percent): Back pain, TEAEs Due to Any Cause, Grade 1 (Safety Population, N = 60) | Contusion, TEAEs Due to Any Cause, Grade 1 (Safety Population, N = 60)
52%: patients with ≥1 treatment-related, treatment-emergent adverse event (60 patients who initiated rilzabrutinib at all doses)
5 (8) number of patients (percent): Arthralgia, TEAEs Due to Any Cause, Any grade (Safety Population, N = 60) | Conjunctival hemorrhage, TEAEs Due to Any Cause, Any grade (Safety Population, N = 60) | Conjunctival hemorrhage, TEAEs Due to Any Cause, Grade 1 (Safety Population, N = 60)
15 (25) number of patients (percent): Any TEAE, Treatment-Related TEAEs, Grade 2 (Safety Population, N = 60)
4 (7) number of patients (percent): Abdominal distension, Treatment-Related TEAEs, Any grade (Safety Population, N = 60) | Abdominal distension, Treatment-Related TEAEs, Grade 1 (Safety Population, N = 60) | Anemia, TEAEs Due to Any Cause, Any grade (Safety Population, N = 60) | Dyspepsia, TEAEs Due to Any Cause, Any grade (Safety Population, N = 60)
31%: treatment-related any-grade TEAE: nausea [1]
31 (52) number of patients (percent): Any TEAE, Treatment-Related TEAEs, Any grade (Safety Population, N = 60)
9%: treatment-related any-grade TEAE: fatigue [1]
16 (27) number of patients (percent): Diarrhea, Treatment-Related TEAEs, Grade 1 (Safety Population, N = 60)
30 (50) number of patients (percent): Any TEAE, TEAEs Due to Any Cause, Grade 2 (Safety Population, N = 60)
48 (80) number of patients (percent): Any TEAE, TEAEs Due to Any Cause, Any grade (Safety Population, N = 60)
27 (45) number of patients (percent): Any TEAE, Treatment-Related TEAEs, Grade 1 (Safety Population, N = 60)
15 (33) number of patients (percent): All related TEAEs, Treatment-Related TEAEs, Grade 2 (N = 45 initiated 400 mg bid)
3 (5) number of patients (percent): Abdominal pain, TEAEs Due to Any Cause, Any grade (Safety Population, N = 60) | Arthralgia, TEAEs Due to Any Cause, Grade 1 (Safety Population, N = 60) | Arthropod bite, TEAEs Due to Any Cause, Any grade (Safety Population, N = 60) | Arthropod bite, TEAEs Due to Any Cause, Grade 1 (Safety Population, N = 60) | Contusion, TEAEs Due to Any Cause, Grade 2 (Safety Population, N = 60) | Diarrhea, TEAEs Due to Any Cause, Grade 2 (Safety Population, N = 60) | Diarrhea, Treatment-Related TEAEs, Grade 2 (Safety Population, N = 60) | Dyspepsia, TEAEs Due to Any Cause, Grade 1 (Safety Population, N = 60)
3 (7) number of patients (percent): Diarrhea, Treatment-Related TEAEs, Grade 2 (N = 45 initiated 400 mg bid) | Fatigue, Treatment-Related TEAEs, Grade 1 (N = 45 initiated 400 mg bid)
43 (72) number of patients (percent): Any TEAE, TEAEs Due to Any Cause, Grade 1 (Safety Population, N = 60)
22 (37) number of patients (percent): Diarrhea, TEAEs Due to Any Cause, Any grade (Safety Population, N = 60)
12 (20) number of patients (percent): Fatigue, TEAEs Due to Any Cause, Any grade (Safety Population, N = 60)
19 (32) number of patients (percent): Diarrhea, TEAEs Due to Any Cause, Grade 1 (Safety Population, N = 60) | Diarrhea, Treatment-Related TEAEs, Any grade (Safety Population, N = 60)
12 (27) number of patients (percent): Nausea, Treatment-Related TEAEs, Grade 1 (N = 45 initiated 400 mg bid)
